Assay results from patent publication US11219222B2, “Topical mosquito control product” (Penta 5 USA, LLC, priority 2016, dated 2022).
Several values for one entry are separate records, joined by “and”; a condition that tells them apart may be missing. Equal entries are not always repeated.

Key:
Format in all cases: in vivo
[1] = system: yellow fever mosquitos, Aedes aegypti; assay: In vitro K & D module biting bioassay, compositions of examples 1-3 vs DEET
Description: The deterrent effect of the above-described compositions of examples 1 -3 was tested in a controlled environment. In vitro laboratory tests were conducted and measured and compared to DEET and nontreated control groups for yellow fever mosquitos, Aedes aegypti. Bioassays were conducted in nine six-chambered Plexiglas K & D modules stocked with female Aedes aegypti mosquitos as shown in FIGS. 1-3. Five female mosquitos were aspirated into each of the six chambers of the nine modules. Repellant treatments were applied at 26.7 microliters with a pipette and spread with a small brush over 12 square centimeter sections of organdy cloth attached to a flat plastic template containing rectangular openings. The treated cloth covered template was fitted between the K & D module and a lower Plexiglas unit. The lower Plexiglas unit contained shallow surface wells filled with a blood substitute (CDTA and ATP) and covered with a moistened collagen membrane. The blood substitute was heated to 38° C. using water pumped through hose lines attached to the lower units and a water bath supplied with a temperature controlled inversion circulator. Mosquitos were exposed to the treated surfaces by opening sliding doors beneath the modules for 90-second biting counts at five post-treatment time intervals from 1 to 6 hours. Fresh, untreated mosquitos are used for each time interval.
The testing protocol including the in vitro environment provides a rigorous testing of the repellency of the composition as the mosquitos are confined with a blood meal.
An unpaired t-test was conducted on the biting counts between lotion as described herein and the control group where there was no treatment applied between the mosquito and the blood well. […] The statistical factors include t=5.8704 where df=16 and a standard error of difference is equal to 0.530. The two-tailed p value is less than 0.0001. The reduction in biting pressure when using the compositions compared to the control group is significant at the 99.99 level of significance.

[2] = system: yellow fever mosquitoes, Aedes aegypti; assay: In vitro K&D module biting bioassay, example 5 (No-Bite), No-Burn and 7% DEET; conditions: 4 hours post-treatment; p>0.05
Description: The deterrent effect of the above-described compositions of example 5 (represented as NO-Bite in FIGS. 7-8) was tested in a controlled environment. In vitro laboratory tests were conducted and measured and compared to DEET and nontreated control groups for yellow fever mosquitos, Aedes aegypti. The repellency of the formulations were compared to a DEET standard, and a non-treated control against yellow fever mosquitoes, Aedes aegypti. The examples were performed in a temperature-controlled laboratory following techniques as disclosed in Klun, J. A., M. A. Kramer, A. Zhang, S. Wang, and M. Debboun. 2008. A quantitative in vitro assay for mosquito deterrent activity without human blood cells. J Am. Mosq. Contr. Assoc. 24:508-512. […] Five colony-reared female Aedes aegypti were aspirated into each chamber (FIG. 1). […] The variance in biting count means by treatment and time intervals was statistically analyzed with SAS Proc ANOVA and statistically tested for significant differences with Tukey's Studentized Range test at p<0.05 and charted with 95% Confidence Intervals (C.I.). Average % repellency was calculated with the following formula and charted by treatment and time interval: (Control Avg. Biting Count—Treatment Avg. Biting Count)÷Control Avg. […]

Aedes aegypti mosquitos = assay: Arm-in-cage test, protective efficacy; conditions: for No. probing on treated arm: 30 seconds exposure; for No. probing on treated arm / % PE: per replicate cage; for Total % PE: three cages
Description: Additional testing was performed with the lotion formula of example 4 including: bee's wax, soybean oil, edible oil such as sunflower oil, isopropyl alcohol, cinnamon oil, cedar wood oil, citronella oil, turmeric, anise, basil oil, salt, ethyl ester, and water with the following protocols. Aedes aegypti mmosquitoes were obtained from insecticide-susceptible reference strains held at the London School of Hygiene & Tropical Medicine, UK. All mosquitoes are reared and housed under optimal environmental conditions of 25° C. ±2° C. and 80% Relative Humidity with a 12:12 hour photoperiod. Testing was carried out in a testing room maintained at […] and 80% RH with a 12:12 hour photoperiod. For each product, the same person carried out the arm-in-cage testing.
For each product test, three batches of 50 female mosquitoes were placed in cages 30×30×30 cm inside the testing room. Before the start of each test a bare arm with gloved hand was inserted into the cage for 30 seconds to assess the biting readiness of the mosquitoes. Only cages with at least ten mosquitoes landing within 30 seconds were used in subsequent testing. The number of mosquitoes probing the untreated arm was counted at the end of the 30 second test. Following the combined fitness/control test, the product was applied onto the right arm at the WHO standard rate of 1 ml per 600 cm2 ([…] per cm2) for the Mosquito Insect Repellent and DEET, and at a rate of 2 mg per cm′ for the Sunscreen Repellent. The arm was then inserted into the cage for 30 seconds and the number of mosquitoes probing on the arm counted and recorded. The procedure was repeated with a total of three cages. This was repeated for each of the three cages and at hourly intervals until 8 hours post-application or until protection drops below 50%. Each product was tested on a separate test day.
Protective efficacy (PE) was calculated using the following formula: PE=(Mosquitoes probing on control arm—Mosquitoes probing on treated arm)/Mosquitoes probing on control arm×100. The average probing on the control arm during testing was 16, 17 and 21 mosquitoes at the end of the 30 second exposure time, in cages used for testing the Mosquito Insect Repellent Lotion and 8% DEET respectively. The Mosquito Insect Repellent Lotion 100% protection at 0 hours, whereas the 8% DEET provided 100% protection for 1 hour after application (Table 1). The Mosquito Insect Repellent Lotion provided over 50% protection for, 3 hours, whereas 8% DEET provided over 50% protection for 6 hours.

CCN(CC)C(=O)c1cccc(C)c1 [DEET] was tested, and the repellency ([1]; 6 hour time period) was 87.1%, the “repellency, average for all five time periods” value ([1]; average of five post-treatment time intervals) was 86.52% and the repellency ([1]; initial start time of zero, 90-second biting counts, 26.7 microliters on 12 square centimeter cloth) was 91.9%. The “biting activity compared with control” value [2] was “no significance difference”.

With CCN(CC)C(=O)c1cccc(C)c1 [8% DEET, DEET] the “No. probing on treated arm” value (Aedes aegypti mosquitos; 0 hours after application) was 0, the “% PE” value (Aedes aegypti mosquitos; 0 hours after application) was 100.00% and the “Total % PE” value (Aedes aegypti mosquitos; 0 hours after application) was 100.00%. The “No. probing on treated arm” value (Aedes aegypti mosquitos; 1 hour after application) was 0, the “% PE” value (Aedes aegypti mosquitos; 1 hour after application) was 100.00% and the “Total % PE” value (Aedes aegypti mosquitos; 1 hour after application) was 100.00%. For the same compound, the “No. probing on treated arm” value (Aedes aegypti mosquitos; 2 hours after application) was 1 and 2 and 0, the “% PE” value (Aedes aegypti mosquitos; 2 hours after application) was 91.67% and 90.91% and 100.00% and the “Total % PE” value (Aedes aegypti mosquitos; 2 hours after application) was 95.00%. For the same compound, the “No. probing on treated arm” value (Aedes aegypti mosquitos; 3 hours after application) was 2 and 0, the “% PE” value (Aedes aegypti mosquitos; 3 hours after application) was 90.00% and 100.00% and the “Total % PE” value (Aedes aegypti mosquitos; 3 hours after application) was 95.35%. The “No. probing on treated arm” value (Aedes aegypti mosquitos; 4 hours after application) was 2 and 1 and 0, the “% PE” value (Aedes aegypti mosquitos; 4 hours after application) was 91.67% and 94.12% and 100.00% and the “Total % PE” value (Aedes aegypti mosquitos; 4 hours after application) was 95.16%. The “No. probing on treated arm” value (Aedes aegypti mosquitos; 5 hours after application) was 2 (2×) and 3, the “% PE” value (Aedes aegypti mosquitos; 5 hours after application) was 93.10% and 88.89% and 86.96% and the “Total % PE” value (Aedes aegypti mosquitos; 5 hours after application) was 90.00%. For the same compound, the “No. probing on treated arm” value (Aedes aegypti mosquitos; 6 hours after application) was 10 and 6 and 7, the “% PE” value (Aedes aegypti mosquitos; 6 hours after application) was 41.18% and 57.14% and 65.00% and the “Total % PE” value (Aedes aegypti mosquitos; 6 hours after application) was 54.90%. For the same compound, the “No. probing on treated arm” value (Aedes aegypti mosquitos; 7 hours after application) was 7 and 6 and 9, the “% PE” value (Aedes aegypti mosquitos; 7 hours after application) was 36.36% and 50.00% (2×) and the “Total % PE” value (Aedes aegypti mosquitos; 7 hours after application) was 46.34%. The “time after application for which 100% protection was provided” value (Aedes aegypti mosquitos; arm-in-cage, hourly intervals) was 1 h and the “time for which over 50% protection was provided” value (Aedes aegypti mosquitos; arm-in-cage, hourly intervals) was 6 h.
